Data reported in patent US9745345B2, “Anti-tumor polypeptides and method for preparing anti-tumor drugs comprisng the same” (priority 2013, dated 2017).
Square brackets hold non-standard residues; d marks the D form. Ends that are not written are not given here. pS = N[C@@H](COP(=O)(O)O)C(=O)O; Ahx = NCCCCCC(=O)O

Key:
[1] = tested on: Human melanoma A375 cells; experiment: Human melanoma A375 subcutaneous xenograft in BALB/c nude mice, intratumoral injection of polypeptides; format: in vivo
Description: Human melanoma A375 cells in the logarithmic phase of growth were cultured under sterile conditions to prepare a 5×10^6/200 μL cell suspension, and 200 μL cell suspension was separately injected into BALB/c nude mice subcutaneously. An electronic digital vernier caliper was used to measure the long-axis and short-axis diameters of the transplanted tumors, and the formula: Tumor Volume (TV)=½×Long-axis Diameter×Short-axis Diameter^2 was used to calculate the volume of the tumors. The mice were randomly grouped when the tumor volume reach about 100 mm^3.
Polypeptides JWA-1, JWA-2, JWA-3, and an equivalent peptide blend (Pep) of the three polypeptides were injected into the tumors of the various groups of mice respectively, and the doses used were 25 mg/kg and 10 mg/kg, respectively; the negative control group was injected with an equal amount of sterile phosphate-buffered saline (PBS). The polypeptide injection groups and the control group were administered on alternate days (48 hrs interval) by injection for 5 times; and the body weight of the mice and their tumor diameters were measured at each administration. After completion of the experiment the mice were sacrificed after anesthesia, tumors were separated from the bodies and their weight were measured.
In this example, the method for dorsal subcutaneous tumor bearing of BALB/c nude mice by inoculation of A375 cells is the same as Example 2.
The aforementioned BALB/c nude mice inoculated with human melanoma A375 cells by intratumoral injection were separately treated using polypeptide JWA-1 of low dose (5 mg/kg), medium dose (10 mg/kg) and high dose (15 mg/kg); at the same time, a sterile PBS negative control group and a 10 mg/kg non-pep injection group (referred to simply as “non-pep group”, the polypeptide sequence used was SEQ ID NO: 14; […]-EEMQR, the N-terminus thereof being acetylated and the C-terminus thereof amidated) were established. The establishment of the non-pep group was for observing whether JWA polypeptides have any specific anti-tumor effect.
To verify the impact of phosphorylation of S in polypeptide JWA-1 on the anti-tumor effect thereof, a non-phosphorylated polypeptide JWA-7 injection group (10 mg/kg) was added in the aforementioned experiment.
(§1) The various groups were administered by intratumoral injection on alternate days for 5 times consecutively; and the body weight of the mice and their tumor diameters were measured at each administration. After completion of the experiment the mice were sacrificed after anesthesia, tumors were separated from the bodies and the tumor weights were measured.
The BALB/c nude mice inoculated with human melanoma A375 cells were separately treated using 10 mg/kg polypeptides JWA-1, JWA-4, JWA-5, and JWA-6; at the same time, a 10 mg/kg non-pep injection group (referred to simply as “non-pep group”, the polypeptide sequence used was the same as Example 3) was established.
The mice with transplanted tumors in this example were the same as Example 2, and the experimental method used therein was also the same as Example 2. The various polypeptides were administered by intratumoral injection at a dose of 10 mg/kg, and a non-pep injection group (referred to simply as “non-pep group”, the polypeptide sequence used was the same as Example 3) was established.

A375 cells [2] = experiment: Western Blot of apoptosis-related molecules (PARP-1, caspase-3) in A375 cells; format: cell-based, human; settings: A375, 24 hrs
Description: (§2) The combined effect of ATO and polypeptide JWA-6 on the self-destruction of protein expression was also determined A375 cells in the logarithmic phase of growth were conventionally digested and 5×10^5 cells were inoculated evenly in a 60 mm cell culture dish, and different doses of ATO were used to individually treat the cells for 24 hrs, or different doses of ATO in combination with different doses of polypeptide JWA-6 were used to treat the cells for 24 hrs, after which 0.18 mL of RIPA lysis buffer containing 0.5% phenylmethanesulfonyl fluoride (PMSF) was added to extract protein. After centrifugation at 12000×g for 15 minutes, the supernatant was taken, protein concentration was examined. Based on the molecular weight measured, a polyacrylamide gel having a suitable concentration was chosen for protein electrophoresis where each well was added with […] of protein, and the conditions for electrolysis were 60 V, 30 minutes and 90 V, 1-1.5 hrs. After completion of the electrolysis, semi-dry transfer was performed to transfer the protein from the gel onto a polyvinylidene difluoride (PVDF) membrane. After completion of the transfer, the membrane was blocked with 5% skim milk at room temperature for 1-2 hrs. Then, the membrane was washed 3 times (each lasting 5 minutes) using Tris-buffered Saline with Tween (TBST) containing 0.1% Tween-20, and incubation of the corresponding antibody was performed overnight at 4° C. On the next day, membrane was washed 3 times (each lasting 5 minutes) using Tris-buffered Saline with Tween (TBST) containing 0.1% Tween-20; incubation of secondary antibody was performed at room temperature for 1-2 hrs; and again membrane was washed 8 times (each lasting 5 minutes) using Tris-buffered Saline with Tween (TBST) containing 0.1% Tween-20. The membrane was added with enhanced chemiluminescence (ECL) liquid and exposed.
Polypeptide CPP-JWA-6 at a dose of 20 μM, 50 μM was applied individually and applied in combination with ATO (5 μM) on A375 cells (as shown in FIG. 40) and SGC7901 cells (as shown in FIG. 41) for 24 hrs before protein was extracted, and the Western Blot method of Example 7 was used to examine the changes in apoptosis-related molecules.

SGC7901 cells = experiment: Western Blot of PARP-1 in SGC7901 cells; format: cell-based; settings: 24 hrs
Description: as §2, with “exposed. […]” for “exposed.”

[3] = tested on: Mouse Melanoma B16F10 Cells; experiment: Cell proliferation with CCK8 reagent, B16F10 cells; format: cell-based; settings: 0-50 μM, 24, 48 and 72 hrs, in comparison with the control group
Description: (§3) B16F10 or A375 cells in the logarithmic phase of growth were trypsinized and seeded in a 96-well plate (5×10^3 cells/well), and were treated with different doses (0 μM, 5 μM, 10 μM, 25 μM, 50 μM) of polypeptide JWA-1, JWA-5, JWA-6 or non-pep (the polypeptide sequence used was the same as Example 3) for 24 hrs, 48 hrs and 72 hrs, respectively. The original culture medium was removed from the 96 wells at the indicated time and cell proliferation was determined with CCK8 reagent according to the manufacturer's instructions. Four duplicate samples were taken from each group and the experiments were repeated for three times.

[4] = tested on: Human Melanoma A375 Cells; experiment: Cell proliferation with CCK8 reagent, A375 cells; format: cell-based; settings: 0-50 μM, 24, 48 and 72 hrs, in comparison with the control group
Description: as §3

A375 cells [5] = experiment: Cytoactivity of A375 cells treated with ATO alone or with polypeptides in combination with ATO; format: cell-based, human; settings: polypeptide 50-500 μM in combination with ATO 0.5-5 μM, 24 and 48 hrs
Description: Firstly, the dose and time for treatment of A375 cells with ATO were determined. A375 cells in the logarithmic phase of growth were conventionally digested and seeded in a 96-well plate (5×10^3 cells/well), and different doses (5 μM, 10 μM, 25 μM, 50 μM) of ATO were used to treat the cells for 24 hrs and 48 hrs after cell attachment. It was discovered that the activity of A375 cells was reduced by 40% after 24 hrs of treatment with 5 μM ATO (as shown in FIG. 24), and that the cell growth inhibition rate was approximately 100% after 48 hrs of treatment with different doses of ATO (as shown in FIG. 25). Therefore, ATO with a concentration smaller than or equal to 5 μM was chosen to treat the cells for 24 hrs for subsequent reference of dose and time for combined medication.

[6] = tested on: human melanoma A375 cells; experiment: Human melanoma A375 subcutaneous xenograft in NOD/SCID mice, intraperitoneal injection of polypeptides; format: in vivo; settings: Example 5, alternate days, 5 times
Text: The polypeptide designed and synthesized in this example was JWA-6+RGD whose sequence was SEQ ID NO: 7, i.e. 6-aminocaproic acid-FPGSDRF-GGGG-RGD, wherein amino acid S was phosphorylated. In addition, the N-terminus of the polypeptide sequence was acetylated and the C-terminus thereof was amidated during synthesis to prevent rapid degradation of the polypeptide. In this example, non-obese diabetic/severe combined immunodeficiency (NOD/SCID) mice were chosen for tumor-bearing model and the method for dorsal subcutaneous tumor bearing by inoculation of human melanoma A375 cells is the same as Example 2. The mice were randomly divided into four treatment groups after the tumors grew to a volume of about 100 mm^3. […]
as §1, with “Then, 50 mg/kg polypeptide JWA-6, 10 mg/kg polypeptide JWA-6+RGD, 50 mg/kg polypeptide JWA-6+RGD, and 50 mg/kg non-pep (the polypeptide sequence used was the same as Example 3) were injected intraperitoneally. The” for “The”, “with” for “by intratumoral”, “weights” for “weights were”
Thereafter, the tumor bearing mice were obtained using the foregoing method of this example and divided into seven injection groups which were intraperitoneally injected with polypeptides JWA-6+RGD, JWA-6+RGD0, JWA-6+RGD1, JWA-6+RGD3, JWA-6+RGD7, JWA-6+RGD10, and non-pep (the polypeptide sequence used was the same as Example 3) at a dose of 50 mg/kg. The various groups were administered by intraperitoneal injection on alternate days for 5 times consecutively; and the body weight of the mice and their tumor diameters were measured at each administration. The day of first administration was taken as the first day, and the experiment was stopped on the twelfth day when the mice were sacrificed after anesthesia, and tumors were separated from the bodies and the tumor weights were measured.

[7] = 20, 50 μM polypeptide combined with ATO 5 μM, in comparison with ATO alone
[8] = polypeptide alone at a dose not exceeding 50 μM
[9] = Example 3, 10 mg/kg intratumoral, alternate days, 5 times, 10 mg/kg
[10] = Example 4, 10 mg/kg intratumoral, alternate days, 5 times, compared among polypeptides

6-aminoacetic acid-EEMQR [non-pep, reference compound]
tumor inhibition effect ([1]; Example 3, 10 mg/kg intratumoral, alternate days, 5 times): no tumor inhibition effect

6-aminocaproic acid-(R)9—FPGSDRF ([Ahx]RRRRRRRRRFPG[pS]DRF) [CPP-JWA-6]
PARP-1 spliceosome (A375 cells [2]; [7]): significantly increased | caspase-3 spliceosome (A375 cells [2]; [7]): significantly increased | changes in the expression of PARP-1 (A375 cells [2]; [8]): will not cause any changes | PARP-1 spliceosome (SGC7901 cells; [7]): significantly increased | changes in the expression of PARP-1 (SGC7901 cells; [8]): will not cause any changes

6-aminocaproic acid-FFPGSDRFA [JWA-1] ([Ahx]FFPG[pS]DRFA)
inhibition effect on B16F10 cells [3]: no inhibition effect | inhibition effect on A375 cells [4]: no inhibition effect | cytoactivity of A375 cells, combined use with ATO (A375 cells [5]): no synergistic effect | inhibition effect on subcutaneous tumor growth in nude mice ([1]; Example 2, 10 mg/kg intratumoral, alternate days, 5 times, in comparison with PBS control group): more significant | tumor weight to body weight ratio ([1]; Example 2, 10 mg/kg intratumoral, alternate days, 5 times, in comparison with PBS control group, P<0.05): smaller | tumor inhibition effect [1, 9]: significant tumor inhibition effect | dose-effect relation of tumor inhibition ([1]; Example 3, 5, 10 and 15 mg/kg intratumoral): no trend of enhanced effect was detected along with dose increase

6-aminocaproic acid-FFPGSDRFA [JWA-7] ([Ahx]FFPGSDRFA)
tumor inhibition effect [1, 9]: no tumor inhibition effect

6-aminocaproic acid-FPGSDRF-GGGG-RGD (Ac-[Ahx]FPG[pS]DRFGGGGRGD-NH2; SMILES CC(=O)NCCCCCC(=O)N[C@@H](Cc1ccccc1)C(=O)N1CCC[C@H]1C(=O)NCC(=O)N[C@@H](COP(=O)(O)O)C(=O)N[C@@H](CC(=O)O)C(=O)N[C@@H](CCCNC(=N)N)C(=O)N[C@@H](Cc1ccccc1)C(=O)NCC(=O)NCC(=O)NCC(=O)NCC(=O)N[C@@H](CCCNC(=N)N)C(=O)NCC(=O)N[C@@H](CC(=O)O)C(N)=O) [JWA-6+RGD]
tumor inhibition effect ([6]; 10 mg/kg intraperitoneal): a certain degree of tumor inhibition effect | tumor inhibition effect ([6]; 50 mg/kg intraperitoneal): better tumor inhibition effect

6-aminocaproic acid-GSD [JWA-4]
tumor inhibition effect [1, 10]: significantly worse than that of polypeptide JWA-6

6-aminocaproic acid-PGSDR ([Ahx]PG[pS]DR) [JWA-5]
inhibition effect on B16F10 cells [3]: no inhibition effect | inhibition effect on A375 cells [4]: no inhibition effect | tumor inhibition effect [1, 10]: significantly worse than that of polypeptide JWA-6
